We go through 28 compounds from patent US6147100A, “Pyrrolidine derivatives having phospholipase A2 inhibitory activity” (Shionogi & Co., Ltd., priority 1997, dated 2000).

One assay concerns the target T1, cPLA2 (Homo sapiens, UniProt P47712).
T1 sequence (P47712 1-749): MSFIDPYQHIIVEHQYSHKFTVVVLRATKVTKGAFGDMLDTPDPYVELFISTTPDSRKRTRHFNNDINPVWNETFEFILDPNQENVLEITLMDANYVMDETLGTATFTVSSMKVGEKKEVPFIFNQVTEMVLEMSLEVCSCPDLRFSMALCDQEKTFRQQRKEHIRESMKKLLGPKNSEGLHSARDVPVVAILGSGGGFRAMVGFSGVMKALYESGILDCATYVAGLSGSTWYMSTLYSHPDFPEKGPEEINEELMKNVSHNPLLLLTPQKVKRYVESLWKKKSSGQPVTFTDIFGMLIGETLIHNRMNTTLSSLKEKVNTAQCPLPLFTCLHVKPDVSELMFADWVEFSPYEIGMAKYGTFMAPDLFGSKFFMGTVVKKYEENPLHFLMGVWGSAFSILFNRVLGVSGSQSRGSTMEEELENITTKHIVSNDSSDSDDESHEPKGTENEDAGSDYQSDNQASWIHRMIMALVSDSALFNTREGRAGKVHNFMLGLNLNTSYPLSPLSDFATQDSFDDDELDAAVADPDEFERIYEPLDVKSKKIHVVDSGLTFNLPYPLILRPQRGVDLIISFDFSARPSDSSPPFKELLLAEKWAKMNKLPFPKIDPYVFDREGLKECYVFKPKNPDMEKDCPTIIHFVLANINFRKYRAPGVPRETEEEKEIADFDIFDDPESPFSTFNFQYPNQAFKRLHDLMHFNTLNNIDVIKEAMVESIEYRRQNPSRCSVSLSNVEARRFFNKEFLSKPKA
The experiment in a line: cPLA2 Inhibitory Activity. Format: biochemical. The settings on record: 1-palmitoyl-2-[14C]-arachidonoyl-sn-glycero-3-phosphocholine 2.5 μM, sn-1,2-dioleoylglycerol 1.25 μM; pH 7.5, 15 min at 37° C. The procedure, abridged:
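Radiometric assay in 50 mM HEPES pH 7.5 with 1 mM CaCl2, 150 mM NaCl, 0.1 mg/ml BSA and 1.7 mM DTT; compound and substrate added, reaction started with enzyme, 15 min at 37° C. Released fatty acids extracted (Dole method), counted by liquid scintillation versus no-compound control.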

Assay [1] has as its system production of prostaglandin E2 by human fibroblasts. The experiment in a line: Inhibition of Production of Prostaglandin E2 in Human Fibroblasts (IL-1 stimulation). Format: cell-based. The settings on record: Fibroblast; human fibroblasts under stimulation with IL-1. Here is the method:
Test Example 2 Inhibition of Production of Prostaglandin E2 in Human Fibroblasts.
In order to examine the availability of the composition for inhibiting cytosolic phospholipase A2 (cPLA2) on the cells, the compounds of the present invention were tested for the effect on the production of prostaglandin E2 by human fibroblasts under the stimulation with IL-1 according to the method of J. M. Dayer et al (CACHECTIN/TUMOR NECROSIS FACTOR STIMULATES COLLAGENASE AND PROSTAGLANDIN E2 PRODUCTION BY HUMAN SYNOVIAL CELLS AND DERMAL FIBROBLASTS; J. M. Dayer, B, Beutler and A, Cerami, J. EXP. Med., 1985, 162, 2163-2168.).

Structures are written as SMILES.

One may read the IC50 as the concentration that gives 50% inhibition. A higher IC50 goes with lower potency.

For the compound `O=C1NC(=O)/C(=C/c2ccc(S(=O)(=O)NC[C@@H]3C[C@@H](OCc4ccccc4-c4ccccc4)CN3C(=O)c3ccccc3C(=O)c3ccc(F)cc3)cc2)S1` [Compound A-62], the half-maximal inhibitory concentration (IC50) against cPLA2 is 260 nM; in assay [1], 1100 nM.
Turning to `O=C1NC(=O)/C(=C/c2ccc(C(=O)NC[C@@H]3C[C@@H](Oc4ccccc4-c4ccccc4)CN3C(=O)c3ccccc3C(=O)c3ccc(F)cc3)cc2)S1` [Compound A-67], the values for the IC50 (against cPLA2; in assay [1]) were 69 nM and 390 nM, respectively.
The like results for `O=C1NC(=O)/C(=C/c2ccc(C(=O)NC[C@@H]3C[C@@H](Oc4cccc(-c5ccccc5)c4)CN3C(=O)c3ccccc3C(=O)c3ccc(F)cc3)cc2)S1` [Compound A-69] were, in that order, 72 nM and 190 nM.
On the same counts, the results for `O=C1NC(=O)/C(=C/c2ccc(C(=O)NC[C@@H]3C[C@@H](Oc4ccc(-c5ccccc5)cc4)CN3C(=O)c3ccccc3C(=O)c3ccc(F)cc3)cc2)S1` [Compound A-70] are 90 nM and 190 nM.
On the same counts, the results for `O=C1NC(=O)/C(=C/c2ccc(C(=O)NC[C@@H]3C[C@@H](Oc4ccc5ccccc5c4)CN3C(=O)c3ccccc3C(=O)c3ccc(F)cc3)cc2)S1` [Compound A-71] are 190 nM and 310 nM.
With `O=C1NC(=O)/C(=C/c2ccc(C(=O)NC[C@@H]3C[C@@H](Oc4cccc5ccccc45)CN3C(=O)c3ccccc3C(=O)c3ccc(F)cc3)cc2)S1` [Compound A-73], the values for the IC50 (against cPLA2; in assay [1]) were 110 nM and 100 nM, respectively.
The like results for `CC(C)(C)c1ccccc1O[C@@H]1C[C@@H](CNC(=O)c2ccc(/C=C3\SC(=O)NC3=O)cc2)N(C(=O)c2ccccc2C(=O)c2ccc(F)cc2)C1` [Compound A-75] were, in that order, 190 nM and 2200 nM.
On the same counts, the results for `O=C1NC(=O)/C(=C/c2ccc(C(=O)NC[C@@H]3C[C@@H](Oc4ccccc4C4CCCC4)CN3C(=O)c3ccccc3C(=O)c3ccc(F)cc3)cc2)S1` [Compound A-76] are 72 nM and 520 nM.
The like results for `O=C1NC(=O)/C(=C/c2ccc(C(=O)NC[C@@H]3C[C@@H](Oc4cccc5c4CCCC5)CN3C(=O)c3ccccc3C(=O)c3ccc(F)cc3)cc2)S1` [Compound A-77] were, in that order, 100 nM and 350 nM.
`O=C1NC(=O)/C(=C/c2ccc(C(=O)NC[C@@H]3C[C@@H](Oc4ccc5cc(-c6ccccc6)ccc5c4)CN3C(=O)c3ccccc3C(=O)c3ccc(F)cc3)cc2)S1` [Compound A-79]: the IC50 amounted to 20 nM on cPLA2 and 310 nM in assay [1].
On the same counts, the results for `O=C1NC(=O)/C(=C/c2ccc(C(=O)NC[C@@H]3C[C@@H](Oc4cc(-c5ccccc5)c5ccccc5c4)CN3C(=O)c3ccccc3C(=O)c3ccc(F)cc3)cc2)S1` [Compound A-81] are 53 nM and 350 nM.
Regarding `O=C1NC(=O)/C(=C/c2ccc(C(=O)NC[C@@H]3C[C@@H](Oc4ccc(/C=C/c5ccccc5)cc4)CN3C(=O)c3ccccc3C(=O)c3ccc(F)cc3)cc2)S1` [Compound A-82], the concentration for half-maximal inhibition (IC50) is 50 nM against cPLA2 and 45 nM in assay [1].
The like results for `O=C1NC(=O)/C(=C/c2ccc(C(=O)NC[C@@H]3C[C@@H](Oc4ccccc4Cc4ccccc4)CN3C(=O)c3ccccc3C(=O)c3ccc(F)cc3)cc2)S1` [Compound A-83] were, in that order, 53 nM and 230 nM.
On the same counts, the results for `O=C1NC(=O)/C(=C/c2ccc(C(=O)NC[C@@H]3C[C@@H](Oc4cccc(-c5ccc6ccccc6c5)c4)CN3C(=O)c3ccccc3C(=O)c3ccc(F)cc3)cc2)S1` [Compound A-84] are 33 nM and 250 nM.
The like results for `O=C1NC(=O)/C(=C/c2ccc(C(=O)NC[C@@H]3C[C@@H](Oc4ccc5ccccc5c4-c4ccccc4)CN3C(=O)c3ccccc3C(=O)c3ccc(F)cc3)cc2)S1` [Compound A-86] were, in that order, 28 nM and 93 nM.
In the case of `CN(C)c1cccc(O[C@@H]2C[C@@H](CNC(=O)c3ccc(/C=C4\SC(=O)NC4=O)cc3)N(C(=O)c3ccccc3C(=O)c3ccc(F)cc3)C2)c1` [Compound A-87], the half-inhibitory concentration (IC50) at cPLA2 amounted to 180 nM; in assay [1], 330 nM.
On the same counts, the results for `CCN(CC)c1cccc(O[C@@H]2C[C@@H](CNC(=O)c3ccc(/C=C4\SC(=O)NC4=O)cc3)N(C(=O)c3ccccc3C(=O)c3ccc(F)cc3)C2)c1` [Compound A-89] are 96 nM and 490 nM.
The like results for `CN(c1ccccc1)c1cccc(O[C@@H]2C[C@@H](CNC(=O)c3ccc(/C=C4\SC(=O)NC4=O)cc3)N(C(=O)c3ccccc3C(=O)c3ccc(F)cc3)C2)c1` [Compound A-91] were, in that order, 50 nM and 940 nM.
The like results for `O=C1NC(=O)/C(=C/c2ccc(C(=O)NC[C@@H]3C[C@@H](Oc4ccccc4-c4cccc5ccccc45)CN3C(=O)c3ccccc3C(=O)c3ccc(F)cc3)cc2)S1` [Compound A-94] were, in that order, 24 nM and 1400 nM.
For `O=C1NC(=O)/C(=C/c2ccc(C(=O)NC[C@@H]3C[C@@H](Oc4ccccc4-c4ccc5ccccc5c4)CN3C(=O)c3ccccc3C(=O)c3ccc(F)cc3)cc2)S1` [Compound A-95], the values for the half-inhibitory concentration (IC50) (at cPLA2; in assay [1]) were 76 nM and 390 nM, respectively.
The like results for `Cc1ccccc1-c1ccccc1O[C@@H]1C[C@@H](CNC(=O)c2ccc(/C=C3\SC(=O)NC3=O)cc2)N(C(=O)c2ccccc2C(=O)c2ccc(F)cc2)C1` [Compound A-97] were, in that order, 51 nM and 640 nM.
For the compound `COc1cccc(-c2ccccc2O[C@@H]2C[C@@H](CNC(=O)c3ccc(/C=C4\SC(=O)NC4=O)cc3)N(C(=O)c3ccccc3C(=O)c3ccc(F)cc3)C2)c1` [Compound A-98], the IC50 on cPLA2 came out at 59 nM; in assay [1], 440 nM.
As for `O=C1NC(=O)/C(=C/c2ccc(C(=O)NC[C@@H]3C[C@@H](Oc4ccccc4-c4ccc5c(c4)OCO5)CN3C(=O)c3ccccc3C(=O)c3ccc(F)cc3)cc2)S1` [Compound A-101], the values for the concentration for half-maximal inhibition (IC50) (on cPLA2; in assay [1]) were 62 nM and 350 nM, respectively.
In the case of `O=C1NC(=O)/C(=C/c2ccc(C(=O)NC[C@@H]3C[C@@H](Oc4ccccc4-c4cccc5c4OCO5)CN3C(=O)c3ccccc3C(=O)c3ccc(F)cc3)cc2)S1` [Compound A-102], the IC50 against cPLA2 amounted to 52 nM; in assay [1], 330 nM.
The like results for `O=C1NC(=O)/C(=C/c2ccc(C(=O)NC[C@@H]3C[C@@H](Oc4ccccc4-c4ccccc4-c4ccccc4)CN3C(=O)c3ccccc3C(=O)c3ccc(F)cc3)cc2)S1` [Compound A-103] were, in that order, 58 nM and 590 nM.
The like results for `CC(C)c1cccc(-c2ccccc2)c1O[C@@H]1C[C@@H](CNC(=O)c2ccc(/C=C3\SC(=O)NC3=O)cc2)N(C(=O)c2ccccc2C(=O)c2ccc(F)cc2)C1` [Compound A-104] were, in that order, 38 nM and 1300 nM.
The like results for `COc1ccccc1-c1ccccc1O[C@@H]1C[C@@H](CNC(=O)c2ccc(/C=C3\SC(=O)NC3=O)cc2)N(C(=O)c2ccccc2C(=O)c2ccc(F)cc2)C1` [Compound A-107] were, in that order, 41 nM and 1100 nM.
With `Cc1cccc(-c2ccccc2O[C@@H]2C[C@@H](CNC(=O)c3ccc(/C=C4\SC(=O)NC4=O)cc3)N(C(=O)c3ccccc3C(=O)c3ccc(F)cc3)C2)c1` [Compound A-108], the IC50 is 44 nM on cPLA2 and 470 nM in assay [1].
